In paper PMC5382271, “The conserved protein Seb1 drives transcription termination by binding RNA polymerase II and nascent RNA” (Nature Communications, 2017):

Experiments:
Parameters in all cases: species or system S. pombe
[1] = system: Seb1 SUMO-RRM388-540 R472E; assay: FA, SUMO-RRM R472E binding to RNA; conditions: SUMO-RRM388-540 R472E vs WT (Fig. 3e)
Procedure: (§1) Recombinant WT and mutated RRM388−540 of Seb1 with an N-terminal His6-SUMO tag were expressed from modified pOPINS3C expression vector[69] in pLysS E. coli strain. For FA assays, protein eluted from NiNTA was further purified on a HiLoad 16/60 Superdex 200 prep grade column (GE Healthcare) using an ÄKTA purifier (GE Healthcare) in 50 mM Tris pH 8.0 and 200 mM NaCl, and fractions containing the Seb1-RRM388−540 concentrated to ∼5 mg ml^−1. For crystallization and SAXS, the NiNTA eluted fractions were buffer exchanged into 50 mM Tris pH 7.5, 300 mM NaCl and 500 mM NDSB-201 using a PD-10 column (GE Healthcare) and cleaved with 3C protease (Sigma-Aldrich) at room temperature overnight. […]
(§2) For Seb1-CID1–152, binding to 75 nM of two-repeat CTD peptides containing an N-terminal 5′-fluorescein amidite (FAM)-tag (Peptides&elephants, Potsdam, Germany) was determined in 25 mM HEPES pH 7.3, 200 mM NaCl and 1 mM EDTA. For RRM388–540, binding was determined to 40 nM FAM-AUUAGUAAAA RNA (Eurofins) in 25 mM Tris-HCl pH 8.0, 100 mM NaCl, 2 mM MgCl2, 1 mM DTT, 16.7% (v/v) glycerol, 0.1% IGEPAL, 0.1 mg ml^−1 tRNA and 2.5% (v/v) RNasin (Promega). Excitation of the ligand was performed with linearly polarized light at 485 nm and emission was measured at 520 nm in parallel and perpendicular planes to the emission plane at 25 °C using a FLUOstar-Omega microplate reader (BMG-Labtech). […]

[2] = system: Seb1 SUMO-RRM388-540 S492A; assay: FA, SUMO-RRM S492A binding to RNA; conditions: SUMO-RRM388-540 S492A vs WT (Fig. 3e)
Procedure: as §1, §2

[3] = system: Seb1 SUMO-RRM388-540 F445A; assay: FA, SUMO-RRM F445A binding to RNA; conditions: for effect on RNA binding, F445A: FA, SUMO-RRM388-540 F445A vs WT (Fig. 3e)
Procedure: Recombinant WT and mutated RRM388−540 of Seb1 with an N-terminal His6-SUMO tag were expressed from modified pOPINS3C expression vector[69] in pLysS E. coli strain. For FA assays, protein eluted from NiNTA was further purified on a HiLoad 16/60 Superdex 200 prep grade column (GE Healthcare) using an ÄKTA purifier (GE Healthcare) in 50 mM Tris pH 8.0 and 200 mM NaCl, and fractions containing the Seb1-RRM388−540 concentrated to ∼5 mg ml^−1. For crystallization and SAXS, the NiNTA eluted fractions were buffer exchanged into 50 mM Tris pH 7.5, 300 mM NaCl and 500 mM NDSB-201 using a PD-10 column (GE Healthcare) and cleaved with 3C protease (Sigma-Aldrich) at room temperature overnight. His6-SUMO tag was removed using NiNTA beads and the cleaved RRM388−540 was further purified on a Superdex 75 10/100 GL column (GE Healthcare) in 20 mM HEPES pH 7.3, 150 mM NaCl and 500 mM NDSB-201. For crystallization trials, the eluted protein was concentrated to ∼8.7 mg ml^−1, for SAXS to ∼5 mg ml^−1.
For Seb1-CID1–152, binding to 75 nM of two-repeat CTD peptides containing an N-terminal 5′-fluorescein amidite (FAM)-tag (Peptides&elephants, Potsdam, Germany) was determined in 25 mM HEPES pH 7.3, 200 mM NaCl and 1 mM EDTA. For RRM388–540, binding was determined to 40 nM FAM-AUUAGUAAAA RNA (Eurofins) in 25 mM Tris-HCl pH 8.0, 100 mM NaCl, 2 mM MgCl2, 1 mM DTT, 16.7% (v/v) glycerol, 0.1% IGEPAL, 0.1 mg ml^−1 tRNA and 2.5% (v/v) RNasin (Promega). Excitation of the ligand was performed with linearly polarized light at 485 nm and emission was measured at 520 nm in parallel and perpendicular planes to the emission plane at 25 °C using a FLUOstar-Omega microplate reader (BMG-Labtech). All measurements were performed in at least duplicates, results were plotted against the protein concentration and Kd values were determined via curve fitting as described in ref. [70].

[4] = system: Seb1 SUMO-RRM388-540 F487A; assay: FA, SUMO-RRM F487A binding to RNA; conditions: SUMO-RRM388-540 F487A vs WT (Fig. 3e)
Procedure: as §1, §2

AUUAGUAAAA (chemistry not fully specified) [RNA: AUUAGUAAAA]
effect on RNA binding, R472E [1]: completely abolishes RNA binding
effect on RNA binding, S492A [2]: only a mild effect on binding
effect on RNA binding, F445A ([3]; listed as FAM-labelled 10 nt-RNA): completely abolishes RNA binding
effect on RNA binding, F445A ([3]; listed as RNA): abolishes the interaction completely
Kd ([3]; fluorescence anisotropy, SUMO-RRM F445A, 40 nM FAM-RNA, Tris-HCl pH 8.0, 100 mM NaCl, 2 mM MgCl2, 25 °C, three technical replicates): > 1 mM
effect on affinity to RNA, F487A [4]: severely reduces the affinity to RNA
